Reference: patent US11370779B2, “Pharmaceutical composition for preventing or treating acute myeloid leukemia or metastatic breast cancer” (PELEMED CO., LTD., priority 2017, dated 2022)
Structures can show the parent of a compound that is named as a salt.

Legend:
[1] = system: MV4;11 cells; assay: Cell viability, EZ-Cytox tetrazolium assay, MV4;11; assay type: cell-based, human; details: Homo sapiens, MV4-11, 72 hours; for IC50: Table 1; for GI50: read-out: GI50(nM) MV4;11
Protocol: The cultured cells were incubated at 3° C. with 5% CO2.
(§1) Cell viability was assessed by a tetrazolium-based assay using the EZ-Cytox Cell Viability Assay kit (DaeilLab, Korea). Briefly, 2,000 to 15,000 cells were plated in 96-well plates in 100 μl of medium. The next day, the cells were treated with compounds together with dimethyl sulfoxide (DMSO) as a negative control. Three days (72 hours) after the drug addition, 15 μl of the EZ-Cytox kit reagent was added to each well of the 96-well plate and then incubated at 37° C. in a humidified CO2 incubator for 4 hours. After incubation, the optical density (OD) was measured at a wavelength of 450 nm using a Victor multilabel reader (Perkin Elmer, Waltham, Mass., USA).

[2] = system: MDA-MB-231; assay: Cell viability, EZ-Cytox tetrazolium assay, MDA-MB-231; assay type: cell-based, human; details: Homo sapiens, MDA-MB-231; 72 hours
Protocol: MDA-MB-231 (metastatic breast cancer, ATCC HTB-26), Jurkat (human acute T lymphocytic leukemia, ATCC TIB-152), and K-562 (human chronic myelogenous leukemia, ATCC CCL-243) cells were cultured in RPMI-1640 (Sigma Co.). MCF7 (human breast adenocarcinoma, ATCC HTB-22) and PC-3 (human prostate adenocarcinoma, ATCC CRL-1435) cells were cultured in DMEM (Sigma Co.) medium supplemented with 10% fetal bovine serum and 1% penicillin/streptomycin. The cultured cells were incubated at 3° C. with 5% CO2.
as §1, with “USA). The IC50 was calculated by nonlinear regression using Prism version 5.01 (GraphPad, La Jolla, Calif., USA).” for “USA).”

Row | SMILES | IC50 [1] | GI50 [1] | GI50 [2]
1 | COC(=O)c1ccc2c(c1)/C(=C1/Nc3ccccc3/C1=N\OCCN1CCN(C)CC1)C(=O)N2 [Compound 5, Methyl (2Z,3E)-3-((2-(4-methylpiperazin-1-yl)ethoxy)imino)-2′-oxo-[2,3′-biindolinylidene]-5′-carboxylate dihydrochloride] | 11 nM |  | 
2 | COC(=O)c1ccc2c(c1)/C(=C1/Nc3ccccc3/C1=N\OCCN1CCOCC1)C(=O)N2 [Compound 6, Methyl (2Z,3E)-3-((2-morpholinoethoxy)imino)-2′-oxo-[2,3′-biindolinylidene]-5′-carboxylate hydrochloride] | 53 nM |  | 
3 | CN1CCN(CCO/N=C2/C(=C3/C(=O)Nc4ccc([N+](=O)[O-])cc43)Nc3ccc(O)cc32)CC1 [Compound 14, (2Z,3E)-5-hydroxy-3-((2-(4-methylpiperazin-1-yl)ethoxy)imino)-5′-nitro-[2,3′-biindolinylidene]-2′-one dihydrochloride] |  | 50 nM | 29.1 nM
4 | NCCO/N=C1/C(=C2/C(=O)Nc3ccc([N+](=O)[O-])cc32)Nc2ccccc21 [Compound 15, (2Z,3E)-3-((2-aminoethoxy)imino)-5′-nitro-[2,3′-biindolinylidene]-2′-one hydrochloride] |  |  | > 1 nM
5 | O=C1Nc2ccc([N+](=O)[O-])cc2/C1=C1/Nc2ccccc2/C1=N\OCCN1CCNCC1 [Compound 16, (2Z,3E)-5′-nitro-3-((2-(piperazin-1-yl)ethoxy)imino)-[2,3′-biindolinylidene]-2′-one dihydrochloride] |  | 7.01 nM | 74.3 nM
6 | O=C1Nc2ccc([N+](=O)[O-])cc2/C1=C1/Nc2ccc(F)cc2/C1=N\OCCN1CCNCC1 [Compound 17, (2Z,3E)-5-fluoro-5′-nitro-3-((2-(piperazin-1-yl)ethoxy)imino)-[2,3′-biindolinylidene]-2′-one dihydrochloride] |  | 10.2 nM | 88.8 nM
7 | CN1CCN(CCO/N=C2/C(=C3/C(=O)Nc4ccc([N+](=O)[O-])cc43)Nc3ccc(F)cc32)CC1 [Compound 18, (2Z,3E)-5-fluoro-3-((2-(4-methylpiperazin-1-yl)ethoxy)imino)-5′-nitro-[2,3′-biindolinylidene]-2′-one dihydrochloride] |  | 118 nM | 69.7 nM
8 | O=C1Nc2ccc([N+](=O)[O-])cc2/C1=C1/Nc2ccc(F)cc2/C1=N\OCCN1CCCCC1 [Compound 19, (2Z,3E)-5-fluoro-5′-nitro-3-((2-(piperidin-1-yl)ethoxy)imino)-[2,3′-biindolinylidene]-2′-one hydrochloride] |  | 1.49 nM | 804 nM
9 | O=C1Nc2ccc([N+](=O)[O-])cc2/C1=C1/Nc2ccc(F)cc2/C1=N\OCCN1CCCC1 [Compound 20, (2Z,3E)-5-fluoro-5′-nitro-3-((2-(pyrrolidin-1-yl)ethoxy)imino)-[2,3′-biindolinylidene]-2′-one hydrochloride] |  | 447 nM | 144 nM
10 | CN1CCN(CCO/N=C2/C(=C3/C(=O)Nc4ccc(F)cc43)Nc3ccc(F)cc32)CC1 [Compound 22, (2Z,3E)-5,5′-difluoro-3-((2-(4-methylpiperazin-1-yl)ethoxy)imino)-[2,3′-biindolinylidene]-2′-one dihydrochloride] |  |  | 600 nM
11 | O=C1Nc2ccc(F)cc2/C1=C1/Nc2ccc(F)cc2/C1=N\OCCN1CCCCC1 [Compound 23, (2Z,3E)-5,5′-difluoro-3-((2-(piperidin-1-yl)ethoxy)imino)-[2,3′-biindolinylidene]-2′-one hydrochloride] |  | 3.19 nM | > 1 nM
12 | O=C1Nc2ccc(F)cc2/C1=C1/Nc2ccc(F)cc2/C1=N\OCCN1CCCC1 [Compound 24, (2Z,3E)-5,5′-difluoro-3-((2-(pyrrolidin-1-yl)ethoxy)imino)-[2,3′-biindolinylidene]-2′-one hydrochloride] |  | 634 nM | 347 nM
13 | NC1CCN(CCO/N=C2/C(=C3/C(=O)Nc4ccc(F)cc43)Nc3ccc(F)cc32)CC1 [Compound 25, (2Z,3E)-3-((2-(4-aminopiperidin-1-yl)ethoxy)imino)-5,5′-difluoro-[2,3′-biindolinylidene]-2′-one dihydrochloride] |  | 85.7 nM | > 1 nM
14 | CN1CCN(CCO/N=C2/C(=C3/C(=O)Nc4ccccc43)Nc3ccccc32)CC1 [Compound 29, (2Z,3E)-3-((2-(4-methylpiperazin-1-yl)ethoxy)imino)-[2,3′-biindolinylidene]-2′-one dihydrochloride] |  | 54.8 nM | 483 nM
15 | O=C1Nc2ccccc2/C1=C1/Nc2ccccc2/C1=N\OCCN1CCCCC1 [Compound 30, (2Z,3E)-3-((2-(piperidin-1-yl)ethoxy)imino)-[2,3′-biindolinylidene]-2′-one hydrochloride] |  | 138 nM | > 1 nM
16 | O=C1Nc2ccccc2/C1=C1/Nc2ccccc2/C1=N\OCCN1CCCC1 [Compound 31, (2Z,3E)-3-((2-(pyrrolidin-1-yl)ethoxy)imino)-[2,3′-biindolinylidene]-2′-one hydrochloride] |  | 104 nM | 313 nM
17 | O=C1Nc2ccc(F)cc2/C1=C1/Nc2ccccc2/C1=N\OCCN1CCCCC1 [Compound 35, (2Z,3E)-5′-fluoro-3-((2-(piperidin-1-yl)ethoxy)imino)-[2,3′-biindolinylidene]-2′-one hydrochloride] |  | 263 nM | 805 nM
18 | O=C1Nc2ccc(Cl)cc2/C1=C1/Nc2ccccc2/C1=N\OCCN1CCNCC1 [Compound 38, (2Z,3E)-5′-chloro-3-((2-(piperazin-1-yl)ethoxy)imino)-[2,3′-biindolinylidene]-2′-one dihydrochloride] |  | 11 nM | 
19 | CN1CCN(CCO/N=C2/C(=C3/C(=O)Nc4ccc(Cl)cc43)Nc3ccccc32)CC1 [Compound 39, (2Z,3E)-5′-chloro-3-((2-(4-methylpiperazin-1-yl)ethoxy)imino)-[2,3′-biindolinylidene]-2′-one dihydrochloride] |  | 37 nM | 
20 | O=C1Nc2ccc(Br)cc2/C1=C1/Nc2ccccc2/C1=N\OCCN1CCNCC1 [Compound 40, (2Z,3E)-5′-bromo-3-((2-(piperazin-1-yl)ethoxy)imino)-[2,3′-biindolinylidene]-2′-one dihydrochloride] |  | 10 nM | 
21 | O=C1Nc2ccc(I)cc2/C1=C1/Nc2ccccc2/C1=N\OCCN1CCNCC1 [Compound 42, (2Z,3E)-5′-iodo-3-((2-(piperazin-1-yl)ethoxy)imino)-[2,3′-biindolinylidene]-2′-one dihydrochloride] |  | 9 nM | 
22 | CN1CCN(CCO/N=C2/C(=C3/C(=O)Nc4ccc(I)cc43)Nc3ccccc32)CC1 [Compound 43, (2Z,3E)-5′-iodo-3-((2-(4-methylpiperazin-1-yl)ethoxy)imino)-[2,3′-biindolinylidene]-2′-one dihydrochloride] |  | 32 nM | 
23 | COc1ccc2c(c1)/C(=C1/Nc3ccccc3/C1=N\OCCN1CCNCC1)C(=O)N2 [Compound 46, (2Z,3E)-5′-methoxy-3-((2-(piperazin-1-yl)ethoxy)imino)-[2,3′-biindolinylidene]-2′-one dihydrochloride] |  | 17 nM | 
24 | COc1ccc2c(c1)/C(=C1/Nc3ccccc3/C1=N\OCCN1CCN(C)CC1)C(=O)N2 [Compound 47, (2Z,3E)-5′-methoxy-3-((2-(4-methylpiperazin-1-yl)ethoxy)imino)-[2,3′-biindolinylidene]-2′-one dihydrochloride] |  | 7 nM | 
